# Results published in patent publication US11464770B2, “Anticancer pharmaceutical composition” (NATIONAL CANCER CENTER, priority 2016, dated 2022).
# Read-outs that look alike come from different tables or passages of the source.
# How the values were obtained:
# [1] = test system: lung cancer cell lines (e.g. NCI-H23, NCI-H1229); assay: Cell based assay, cell viability (CellTiter-Glo), lung cancer cell lines; conditions: Homo sapiens, 72 hours treatment, CellTiter-Glo
# Summary of the method: (§1)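 Trypsin-EDTA-detached lines seeded; 24 h later compound added (final 0–2 μM); 72 h exposure; ATP luminescence viability readout.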
# [2] = test system: blood cancer cell lines (e.g. HL-60, Jurkat, Raji, Ramos, Daudi, MOLT-4); assay: Cell based assay, cell viability (CellTiter-Glo), blood cancer cell lines; conditions: Homo sapiens
# Summary of the method: as §1
# [3] = test system: melanoma cell lines; assay: Cell based assay, cell viability (CellTiter-Glo), melanoma cell lines; conditions: Homo sapiens; LOX-IMVI cell line
# Summary of the method: as §1
# [4] = test system: cervical carcinoma cell lines; assay: Cell based assay, cell viability (CellTiter-Glo), cervical carcinoma cell lines; conditions: Homo sapiens; HeLa cells
# [5] = test system: ovarian cancer cell lines; assay: Cell based assay, cell viability (CellTiter-Glo), ovarian cancer cell lines; conditions: Homo sapiens; OVCAR-3 cells
# Summary of the method: as §1
# [6] = test system: RT4: human urinary bladder transitional cell papilloma; assay: Cell based assay, cytotoxicity in RT4 papilloma cells (selectivity); conditions: Homo sapiens, RT-4; RT4 cells
# [7] = A549 cells, read-out: IC50, lung cancer cell line A549
# [8] = DMS 114 cells, read-out: IC50, lung cancer cell line DMS 114
# [9] = NCI-H23 cells, read-out: IC50, lung cancer cell line NCI-H23
# [10] = NCI-H460 cells, read-out: IC50, lung cancer cell line NCI-H460
# [11] = NCI-H522 cells, read-out: IC50, lung cancer cell line NCI-H522
# [12] = NCI-H1299 cells, read-out: IC50, lung cancer cell line NCI-H1299
# [13] = NCI-H1437 cells, read-out: IC50, lung cancer cell line NCI-H1437
# [14] = MV4-11, blood cancer cell line MV-4-11, 72 hours, read-out: IC50, MV-4-11
# [15] = blood cancer cell line Daudi, 72 hours, read-out: IC50, Daudi
# [16] = blood cancer cell line HL-60, 72 hours, read-out: IC50, HL-60
# [17] = blood cancer cell line Jurkat, 72 hours, read-out: IC50, Jurkat
# [18] = blood cancer cell line MOLT-4, 72 hours, read-out: IC50, MOLT-4
# [19] = blood cancer cell line Raji, 72 hours, read-out: IC50, Raji
# [20] = blood cancer cell line Ramos (RA 1), 72 hours, read-out: IC50, Ramos (RA 1)
# [21] = blood cancer cell line U-937, 72 hours, read-out: IC50, U-937
Compound,"IC50 [1, 7]","IC50 [1, 8]","IC50 ([1]; MRC-5 cells, read-out: IC50)","IC50 [1, 9]","IC50 [1, 10]","IC50 [1, 11]","IC50 [1, 12]","IC50 [1, 13]","IC50 [2, 14]","IC50 [2, 15]","IC50 [2, 16]","IC50 [2, 17]","IC50 [2, 18]","IC50 [2, 19]","IC50 [2, 20]","IC50 [2, 21]",IC50 [3],IC50 [4],IC50 [5],IC50 [6]
"COc1cc(C[S+]([O-])c2[nH]c3c(Br)ccc(Cl)c3c(=O)c2C(C)=O)cc(OC)c1 (stereo not drawn) [Compound 59, 3-acetyl-8-bromo-5-chloro-2-((3,5-dimethoxybenzyl)sulfinyl)quinolin-4(1H)-one]",> 2000 nM,> 2000 nM,1030 nM,920 nM,1810 nM,> 2000 nM,1450 nM,> 10000 nM,1560 nM,> 2000 nM,1990 nM,1010 nM,1380 nM,1150 nM,> 2000 nM,> 2000 nM,1060 nM,> 10000 nM,840 nM,> 10000 nM
"CC(=O)c1c([S+]([O-])Cc2ccc(I)cc2)[nH]c2c(Cl)ccc(Cl)c2c1=O (stereo not drawn) [Compound 83, 3-acetyl-5,8-dichloro-2-((4-iodobenzyl)sulfinyl)quinolin-4(1H)-one]",> 2000 nM,> 2000 nM,1750 nM,1250 nM,1540 nM,> 2000 nM,1450 nM,> 10000 nM,> 2000 nM,1220 nM,> 2000 nM,1310 nM,1250 nM,1750 nM,1170 nM,> 2000 nM,1570 nM,> 10000 nM,820 nM,> 10000 nM
"CC(=O)c1c([S+]([O-])Cc2ccc(SC(F)(F)F)cc2)[nH]c2c(Br)ccc(Cl)c2c1=O (stereo not drawn) [Compound 56, 3-acetyl-8-bromo-5-chloro-2-((4-((trifluoromethyl)thio)benzyl)sulfinyl)quinolin-4(1H)-one]",1700 nM,> 2000 nM,1240 nM,1040 nM,1900 nM,> 2000 nM,> 2000 nM,> 10000 nM,1500 nM,1250 nM,1950 nM,1060 nM,1660 nM,1120 nM,1860 nM,1750 nM,1090 nM,> 2000 nM,1090 nM,> 10000 nM
"CC(=O)c1c([S+]([O-])Cc2ccc(OC(F)(F)F)cc2)[nH]c2c(Br)ccc(Cl)c2c1=O (stereo not drawn) [Compound 71, 3-acetyl-8-bromo-5-chloro-2-((4-(trifluoromethoxy)benzyl)sulfinyl)quinolin-4(1H)-one]",1790 nM,> 2000 nM,> 2000 nM,1460 nM,> 2000 nM,> 2000 nM,1640 nM,> 10000 nM,> 2000 nM,> 2000 nM,> 2000 nM,1250 nM,1510 nM,1650 nM,> 2000 nM,> 2000 nM,1410 nM,> 10000 nM,1310 nM,> 10000 nM
"CC(=O)c1c([S+]([O-])Cc2ccc(C(C)(C)C)cc2)[nH]c2c(Br)ccc(Cl)c2c1=O (stereo not drawn) [Compound 60, 3-acetyl-8-bromo-2-((4-(tert-butyl)benzyl)sulfinyl)-5-chloroquinolin-4(1H)-one]",> 2000 nM,> 2000 nM,> 2000 nM,1370 nM,> 2000 nM,> 2000 nM,> 2000 nM,> 10000 nM,> 2000 nM,> 2000 nM,> 2000 nM,1270 nM,1630 nM,> 2000 nM,> 2000 nM,> 2000 nM,1670 nM,> 10000 nM,> 2000 nM,> 10000 nM
"Cc1cc(C[S+]([O-])c2[nH]c3c(Br)ccc(Cl)c3c(=O)c2C(=O)C(C)C)no1 (stereo not drawn) [Compound 95, 8-bromo-5-chloro-3-isobutyryl-2-(((5-methylisoxazol-3-yl)methyl)sulfinyl)quinolin-4(1H)-one]",940 nM,> 2000 nM,970 nM,720 nM,1400 nM,1010 nM,1060 nM,< 2000 nM,700 nM,640 nM,980 nM,290 nM,1010 nM,1000 nM,520 nM,1060 nM,540 nM,> 2000 nM,380 nM,> 10000 nM
